Reference: patent publication US11207290B2, “Combinations of cannabinoids and N-acylethanolamines” (SciSparc Ltd., priority 2015, dated 2021)
“Also recorded” adds a separate entry of the source.

Experiments:
Mice, strain ICR [1] = assay: Tail pinch test (modified Haffner's method); assay type: in vivo; conditions: for Latency to respond: vs control
Method: (§1) Animals—Mice, strain ICR, male, 8 weeks of age at study initiation. The average animal body weight at study initiation was in the range of 31.97±1.61 g. […] Animals were randomly allocated to individual cages on the day of reception. Animals were acclimated for seven to nine days.
(§2) Test item was administered […] at a dose volume of 10 ml/kg according to the doses in Table 1. Dosing was performed 15 minutes before each of the behavioral tests.
Tail pinch tests were performed as follows, according to the modified Haffner's method (as depicted in Takagi et al., Jpn. J. Pharmacol., 1966, 16, Pages 287-294)—Mice were pretested by pinching their tail base with an artery clip (1.5 mm width, constant force), and only the mice that show a nociceptive response such as biting the clip or vocalizing within 2 sec were used for experiments. […] To prevent tissue damage, the pressure stimuli was not applied for more than 10 sec. After drug treatments, the nociceptive response in the tail-pinch test was measured at varying intervals.
(§3) Statistical analysis—Numerical results were given as means±standard error of the mean. The results were subjected either to a T-test or to two-way ANOVA, followed by Bonferroni post-hoc contrast analysis between the groups where applicable. A probability of less than 5% (p<0.05) was regarded as significant.

[2] = Body weight gain during the study; assay type: in vivo, mice; conditions: vs vehicle group 1M
Method: as §1, §2, §3

[3] = widely considered; Buxbaum 1972; cited from earlier work
adult TS patients [4] = conditions: 2.5 mg THC per day titrated to 10 mg, vs placebo, visits 3 and 4, p<0.05; cited from earlier work
adult TS patients [5] = conditions: single dose of 5, 7.5 or 10 mg THC compared with placebo, p=0.015; cited from earlier work
Mice, strain ICR [6] = assay: Open Field (OF) test; assay type: in vivo; conditions: 15 minute session; for Average animal velocity (uncontrolled movement): FIG. 2
Method: as §1, §2
Open Field (OF) tests were performed as follows—Fifteen minutes after test item/vehicle administration, mice were placed at the center of an open field box (43×43×40 cm) between 9 AM and 5 PM. On each side of the open field box, two frames placed at 2 and 5 cm height with 16 photocell beams per side ensure movement detection. The computer defined grid lines that divided the open field into two compartments: margin and center. Several variables were recorded during a 15 minute session of spontaneous activity including: time spent moving, traveled distance, time spent and number of visits to the central compartment.
as §3

SMILES: CCCCCc1cc(O)c2c(c1)OC(C)(C)[C@@H]1CCC(C)=C[C@@H]21 [THC, (−)-trans-Δ9-tetrahydrocannabinol]
- Analgesic effect at 15′ post administration (Mice, strain ICR [1]; group 2M: THC 50 mg/kg): only group 4M exhibited an analgesic effect
- Latency to respond (Mice, strain ICR [1]; group 2M: high dose THC 50 mg/kg, FIG. 4A): higher compared to the control
- Analgesic effect at 15′ post administration (Mice, strain ICR [1]; group 3M: THC 12.5 mg/kg): exhibited an analgesic effect
- Latency to respond (Mice, strain ICR [1]; group 3M: low dose THC 12.5 mg/kg, FIG. 4B): higher compared to the control
- Body weight (BW) gain ([2]; group 2M: THC 50 mg/kg, FIG. 1A): characteristic weight gain
- Body weight (BW) gain ([2]; group 3M: THC 12.5 mg/kg, FIG. 1B): increased; also recorded: characteristic weight gain
- Minimal effective dose of THC as an analgesic [3]: 20 mg/kg
- Global Clinical Impression Scale (GCIS) (adult TS patients [4]): significant difference
- Tourette Syndrome Symptom List (TSSL) self-rating (adult TS patients [5]): significant global tic improvement
- Average animal velocity (uncontrolled movement) (Mice, strain ICR [6]; group 2M: THC 50 mg/kg, vs control 1M): significantly increased the velocity
- Total time spent in the center of an arena (measure of anxiety) (Mice, strain ICR [6]; group 2M: THC 50 mg/kg, FIG. 3): decreased the time spent in the center
- Average animal velocity (uncontrolled movement) (Mice, strain ICR [6]; group 3M: THC 12.5 mg/kg): had no effect
